# Results as given in patent US20190275179A1, “SONOPHORE-LABELED PROBES AND RELATED IN VIVO IMAGING TECHNIQUES” (MEMORIAL SLOAN KETTERING CANCER CENTER, priority 2016, published 2019).
# Legend:
# [1] = Absorbance spectra of BHQ-1 and BHQ-1-cRGD by spectrophotometry; type: physicochemical; settings: measured in ethanol, 250 nm to 750 nm
# Method: To a stirring solution of cyclic RGD (cyclo(Arg-Gly-Asp-D-Phe-Lys) (cRGD), 1.0 mg, 1.66 μmol, 1.0 eq., Peptides International, KY, US) in anhydrous DMF (200 μL) a solution of BHQ-1 N-hydroxysuccinimide (NHS) ester (1.2 mg, 2.0 μmol, 1.2 eq., Biosearch Technologies, CA, US) in anhydrous DMF (200 μL) and […] (1.2 μL, 8.0 μmol, 4.8 eq.) was added sequentially. The resulting reaction solution was stirred for 4 h at room temperature. Purification by high performance liquid chromatography (HPLC) (C18, 10% to 100% of acetonitrile over 10 min, then 100% of acetonitrile until 18 min, 1.0 mL/min) yielded BHQ-1-cRGD (1.5 mg, 1.4 μmol, 82%) as a black solid. The purity of BHQ-1-cRGD was analyzed by performing analytical HPLC (rt=11.0 min, >97%). The identity of the product ([…], MW: 1090.21 g/mol) was verified by electrospray ionization mass spectrometry (ESI(+): m/z (%) 546.70 (100) [M+2H]^2+, 1090.40 (25) [M+H]^+). The absorbance spectra of BHQ-1 and BHQ-1-cRGD were measured in ethanol using spectrophotometry from 250 nm to 750 nm.
# [2] = In vivo optoacoustic imaging (RSOM) of BHQ-1 in mouse footpad; set-up: species or system mice
# Method: For in vivo experiments, 6-8 week old female Hsd: Athymic Nude-Foxn1^nu mice were purchased from Envigo (IN, US). All animal experiments were performed in accordance with institutional guidelines and approved by the IACUC of MSK, and followed NIH guidelines for animal welfare.
# For imaging, a high-resolution raster-scan optoacoustic mesoscopy (RSOM) prototype scanner was used in an epi-illumination mode. The scanner illuminates the tissue with a fast monochromatic nanosecond laser (1 ns, 2 kHz, 1 mJ pulse energy at 532 nm). The laser light was coupled to the sample using a three arm fiber bundle which is combined with the ultrasound detector into a single scan unit. The optoacoustic signals were measured with a 50 MHz spherically focused detector and a bandwidth of 5-80 MHz. Furthermore, the signals were amplified with a 63 dB low noise amplifier and digitized using a fast 12 bit data acquisition card. The scan was performed in a continuous-discrete manner. The usual scan took 1.30 minutes for a field of view of 8×8 mm^2 and the maximum depth was about 2 mm, limited by the penetration depth of 532 nm photons in tissue.
# The raw signals were transformed to the computer on which they were later reconstructed using beam forming. Before reconstruction, the signals were divided into two sub-bands: low frequencies 5-25 MHz and high frequencies 25-80 MHz. These sub-bands were later on separately reconstructed an overlayed using different colors (red=low frequencies, green=high frequencies). For the reconstruction a speed of sound of 1540 m/s has been used and the reconstruction has been performed with voxel sizes of 20×20×5 μm^3. Finally, the Hilbert transform was applied to the reconstructed volume to remove the negative values and the images were further processed using a Wiener and a Median filter to improve the signal to noise ratio. For visualization we took the maximum intensity of the three-dimensional volume.
# All mice were anesthetized using 2% isoflurane. For imaging the quencher dye in vivo, 10 nmol BHQ-1 solution were injected subcutaneously into the footpad of 3 mice. The mouse was then placed in a pre-warmed water bath on a mouse bed keeping the head of the animal above water level. The foot of the mouse was stabilized under water with tape to keep it in a static position for the measurement procedure. The feet were measured before and directly after injection using RSOM as described under 2.3. Quantitative analysis was done in ImageJ by placing a ROI over the injection site of each foot as well as over the background blood vessels in the foot pad.
# [3] = 10 nmol subcutaneous into footpad
smiles,measurement,setting,value
COc1cc(/N=N/c2ccc(C)cc2[N+](=O)[O-])c(C)cc1/N=N/c1ccc(N)cc1 [BHQ-1],absorption spectrum peak,[1],515 nm
same,"optoacoustic signal at the injection site, high frequencies (25-80 MHz)",[2]; [3],55.6±5.7 AU
same,"optoacoustic signal at the injection site, low frequencies (5-25 MHz)",[2]; [3],67.2±3.4 AU
same,"optoacoustic signal at the injection site, overlay image of all detected frequencies","[2]; 10 nmol subcutaneous into footpad, directly after injection",121.6±14.2 AU
same,optoacoustic signal at injection site relative to surrounding footpad vessels,"[2]; overlay of all frequencies, 10 nmol s.c.",~5 times
